What all share (assay type): functional, cell-based
What all share (settings): oocyte

Data set [1] has as its target T1, Organic anion transporter 3 (Homo sapiens, UniProt Q8TCC7).
T1 sequence (Q8TCC7 whole entry): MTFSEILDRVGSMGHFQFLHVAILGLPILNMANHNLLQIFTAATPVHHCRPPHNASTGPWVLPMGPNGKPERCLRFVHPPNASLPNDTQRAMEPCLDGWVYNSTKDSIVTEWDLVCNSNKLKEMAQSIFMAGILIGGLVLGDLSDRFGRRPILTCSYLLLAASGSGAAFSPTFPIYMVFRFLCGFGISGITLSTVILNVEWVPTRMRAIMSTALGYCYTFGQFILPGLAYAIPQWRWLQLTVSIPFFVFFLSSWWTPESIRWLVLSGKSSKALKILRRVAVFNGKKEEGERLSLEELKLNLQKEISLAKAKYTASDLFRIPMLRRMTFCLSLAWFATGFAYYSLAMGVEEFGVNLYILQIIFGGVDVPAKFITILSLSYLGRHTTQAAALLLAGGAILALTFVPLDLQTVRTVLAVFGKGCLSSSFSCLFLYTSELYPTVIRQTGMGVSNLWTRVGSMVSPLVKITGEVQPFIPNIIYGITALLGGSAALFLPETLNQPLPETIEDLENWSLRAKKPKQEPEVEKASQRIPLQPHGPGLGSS
Put plainly: (§1) TP_TRANSPORTER: uptake in Xenopus laevis oocytes.

In data set [2] the target is T2, Solute carrier family 22 member 6 (Homo sapiens, UniProt Q4U2R8).
T2 sequence (Q4U2R8 whole entry): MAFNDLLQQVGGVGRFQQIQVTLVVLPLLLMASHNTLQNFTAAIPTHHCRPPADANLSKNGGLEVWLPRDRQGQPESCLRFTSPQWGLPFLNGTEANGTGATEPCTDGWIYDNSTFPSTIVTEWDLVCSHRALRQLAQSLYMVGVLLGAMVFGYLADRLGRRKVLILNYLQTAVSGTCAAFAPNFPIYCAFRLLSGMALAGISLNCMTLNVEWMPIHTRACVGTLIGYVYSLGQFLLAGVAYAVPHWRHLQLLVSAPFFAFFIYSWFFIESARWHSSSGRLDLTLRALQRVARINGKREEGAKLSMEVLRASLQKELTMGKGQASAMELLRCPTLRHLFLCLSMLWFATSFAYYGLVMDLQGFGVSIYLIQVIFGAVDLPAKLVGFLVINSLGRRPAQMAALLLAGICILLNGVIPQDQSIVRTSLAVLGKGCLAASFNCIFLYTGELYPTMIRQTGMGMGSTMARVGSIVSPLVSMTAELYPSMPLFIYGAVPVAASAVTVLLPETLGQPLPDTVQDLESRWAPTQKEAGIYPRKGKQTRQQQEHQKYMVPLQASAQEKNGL
Kind of data set: TP_TRANSPORTER: inhibition of PAH uptake (PAH: 1 uM, Hydrochlorothiazide: 100 uM) in Xenopus laevis oocytes.

The target in data set [3] is T2, Solute carrier family 22 member 6. Kind of data set: TP_TRANSPORTER: inhibition of PAH uptake (PAH: 1 uM, Losartan: 100 uM) in Xenopus laevis oocytes.
The target is the same in data set [4]. The data set is described as §1.
For data set [5] the target is unchanged. Kind of data set: TP_TRANSPORTER: inhibition of PAH uptake (PAH: 1 uM, Urate: 100 uM) in Xenopus laevis oocytes.
For data set [6] the target is unchanged. Kind of data set: TP_TRANSPORTER: inhibition of PAH uptake (PAH: 1 uM, Bumetamide: 100 uM) in Xenopus laevis oocytes.

Take `O=C([O-])C(=O)[O-].[Na+].[Na+]` [SODIUM OXALATE]: in data set [1], the Activity entry was “is not a substrate [-]”.

Take `NS(=O)(=O)c1cc2c(cc1Cl)NCNS2(=O)=O` [HYDROCHLOROTHIAZIDE]: the Activity entry in data set [2] is “is not an inhibitor [-]”.

Consider `CC[N+](CC)(CC)CC` [TETRYLAMMONIUM], for which the Activity result in data set [1] was “is not a substrate [-]”.

Regarding `Nc1ccc(C(=O)NCC(=O)O)cc1` [AMINOHIPPURIC ACID], the Activity entry in data set [1] is “is not a substrate [-]”.

For `CCCCc1nc(Cl)c(CO)n1Cc1ccc(-c2ccccc2-c2nn[nH]n2)cc1` [LOSARTAN], the Activity result in data set [3] is “inhibitor [(at a rough estimate) 25 % of control]”.

Regarding `O=c1[nH]c(=O)c2[nH]c(=O)[nH]c2[nH]1` [URIC ACID], the Activity entry is “is not a substrate [-]” in data set [1], “is not a substrate [-]” in data set [4] and “is not an inhibitor [-]” in data set [5].

Take `CCCCNc1cc(C(=O)O)cc(S(N)(=O)=O)c1Oc1ccccc1` [BUMETANIDE]: the Activity entry in data set [6] is “inhibitor [(at a rough estimate) 45 % of control]”.

The values above are taken from ChEMBL document CHEMBL2074484, “Molecular cloning and characterization of two novel human renal organic anion transporters (hOAT1 and hOAT3)” (Biochem Biophys Res Commun, 1999).
